In patent publication US20120302636A1, “METHOD OF TREATING A DISORDER ASSOCIATED WITH MTP” (priority 2009, published 2012):

Key:
[1] = Example 8: pharmacokinetics (trough concentrations)
Description: This example involved a clinical study of the compound of formula (I), which was a randomized, double-blind, placebo-controlled, parallel group study to evaluate the efficacy of the compound of formula (I) administered twice daily for twelve weeks in obese subjects.

serum lipid levels [2] = assay: Example 3: serum lipid levels; type: in vivo, human; conditions: active groups
Description: Eighteen healthy Japanese males 20 to 35 years of age with a BMI of 18.5 to 25 kg/m^2 participated in the study. The subjects were divided into two dosing groups and within each dosing group, the subjects were divided as follows: 6 subjects received the compound of formula (I) and 3 subjects received placebo. The dosing regimen was oral administration of a tablet twice a day for 14 days after breakfast and dinner (specifically, within 180 minutes of the commencement of eating), in which each tablet contained 1 mg (2 mg/day) or 2 mg (4 mg/day).

[3] = tested on: gut hormone (GLP-1 active, PYY total, GIP total) levels; assay: Example 9: gut hormone levels in obese male subjects; type: in vivo, human; conditions: for increase in GLP-1 active compared with placebo / increase in PYY total compared with placebo: 4 hours after dinner
Description: The study enrolled 16 obese male subjects (18-65 years of age (inclusive), with a body mass index (BMI) >30.0 kg/m^2 and <40.0 kg/m^2) who participated in two treatment periods. During Period 1, 8 subjects were randomized to receive 3.5 mg of the compound of formula (I), and 8 subjects were randomized to receive placebo. The compound of formula (I) or placebo was administered twice daily (BID), 30 minutes after the start of breakfast and dinner, for 10 days. All subjects were discharged from the clinic at the end of Period 1 for a 9±2 day discharge period. Subjects then returned for treatment during Period 2, in which (i) the group previously receiving the compound of formula (I) now received placebo, and (ii) the group previously receiving placebo now received the compound of formula (I), in accordance with the protocol described above.
The primary objective of this study was to examine the change in gut hormone levels. The co-primary endpoints were trough gut hormone (glucagon-like peptide 1 (GLP-1) active, peptide tyrosine tyrosine (PYY) total, and gastric inhibitory polypeptide (GIP) total) levels on Day 10 in each treatment period and the trough gut hormone profile throughout the study. On Day 10 of each treatment period, statistically significant mean increases in GLP-1 active (60%) and PYY total (43%) were observed during administration of the compound of formula (I) compared with placebo, whereas no change in GIP total relative to placebo was found.

serum lipid levels [4] = assay: Example 2: serum lipid levels; type: in vivo, human
Description: (§1) Each tablet contained 5 mg (BID), 10 mg (QD), 20 mg (QD), or 30 mg (QD).

[5] = 3-month oral repeated dose toxicity study in dogs; type: in vivo; conditions: 25 mg/kg
serum lipid levels [6] = assay: Example 5: fixed-dose or escalating doses 12 weeks in hyperlipidemia, efficacy; type: in vivo, human; conditions: for LDL-C level decrease: dose escalation group
Description: Fifty-two Japanese patients with hyperlipidemia (LDL-C between 140 and 220 mg/dL; TG≦400 mg/dL) participated in the study. […] One group received a fixed dose of 2 mg per tablet through the entire study. The other group received escalating doses of 0.5 mg (weeks 1-4), 1 mg (weeks 5-8), and 2 mg (weeks 9-12). For the efficacy analysis, 50 subjects were observed (25 in the fixed-dose group and 25 in the dose escalation group).
The objective of this study was preliminary evaluation of the efficacy (based on serum lipid levels), safety, and pharmacokinetics of the compound of formula (I) administered orally twice daily after breakfast and supper for 12 weeks as a fixed dose (4 mg/day) or escalating dose (1 mg/day, 2 mg/day and 4 mg/day) regimen in patients with hyperlipidemia.

[7] = Example 1: repeated oral dose study of capsules, safety
Description: The subjects were divided into two dosing groups, and within each dosing group, the subjects were divided as follows: 6 subjects received the compound of formula (1) and 3 subjects received placebo. […] Subjects were in a fed condition prior to administration of each capsule.
Each active capsule contained a filling solution and a gelatin solution. The filling solution comprised the compound of formula (I) (5 mg), propylene glycol esters of fatty acids, and dehydrated ethanol. The gelatin solution comprised purified water, gelatin, and anhydrized liquid sorbitol. The filling solution and gelatin solution were prepared individually and combined to form a soft capsule. The placebo capsules were prepared in a similar manner except that the filling solution contained only propylene glycol esters of fatty acids and dehydrated ethanol.

[8] = Example 2: repeated oral dose study of tablets QD or BID, safety; type: in vivo, human
Description: as §1

serum lipid levels [9] = assay: Example 1: serum lipid levels; type: in vivo, human
Description: In this study, lipids related to lipoprotein metabolism were determined as serum lipid test items. In the active group, postprandial elevations for RLP-C, TG, LDL-TG, HDL-TG, CM-TG, and ApoB48 (reference data) were inhibited, while LDL-C, HDL-C, TC, and ApoB values decreased. The manifestation of those effects required 3 to 7 days. […] This effect is attributable to the inhibition of diet-derived lipid absorption based on the MTP inhibitory activity of the compound of formula (I) in the small intestine.

## CCOC(=O)C(COC(=O)Cc1ccc(NC(=O)c2ccccc2-c2ccc(C(F)(F)F)cc2)c(C(=O)N(C)C)c1)(C(=O)OCC)c1ccccc1 [compound of formula (I), diethyl 2-((2-(3-(dimethylcarbamoyl)-4-(4′-(trifiuoromethyl)biphenyl-2-ylcarboxamido)phenyl)acetoxy)methyl)-2-phenyl malonate]
[1]; 1 mg BID
  trough concentrations of the compound of formula (I): not quantifiable
[1]; 2.5 and 3.5 mg BID
  trough concentrations of the compound of formula (I): quantifiable in a few subjects
Serum lipid levels [2]
  postprandial elevation in TG, HDL-TG, LDL-TG, Midband-TG, and CM-TG: inhibited a postprandial elevation
[3]; 3.5 mg BID, Day 10
  mean increase in trough GLP-1 active compared with placebo: 60%
  mean increase in trough PYY total compared with placebo: 43%
  trough GIP total relative to placebo: no change
[3]; Day 2
  increase in GLP-1 active compared with placebo: 38%
  increase in PYY total compared with placebo: 44%
[3]; Day 9
  increase in GLP-1 active compared with placebo: 71%
  increase in PYY total compared with placebo: 42%
  average increase in GLP-1 active around breakfast: 38%
  average increase in PYY total around breakfast: 51%
[3]; 4 hours post-dinner, Day 2 and Day 9
  GIP total relative to placebo: No statistically significant differences
[3]; Day 2, -0.5 to 3.5 hours relative to dosing
  gut hormone AUC profiles around breakfast: no significant changes
[3]; Day 2 or Day 9
  GIP total profile: No significant changes
[3]; Day 9, around breakfast
  decrease in AUC for GIP total compared with placebo: 17%
  increase in AUC for GLP-1 active compared with placebo: 31%
  increase in AUC for PYY total compared with placebo: 39%
[3]; days 2 through 11
  average increase in trough PYY total: 63%
[3]; days 3, 5 and 11
  average increase in trough GIP total: 24%
[3]; days 3 through 11
  average increase in trough GLP-1 active: 45%
Serum lipid levels [4]; active group
  postprandial elevations for TG, HDL-TG, LDL-TG, Midband-TG, VLDL-TG, CM-TG, and ApoB48: suppressed
Serum lipid levels [4]; by and after Day 7
  TC, HDL-C, LDL-C, and ApoB values: decreased
[5]; 3-month safety study
  toxicity findings: no toxicity findings
[5]; 3 months oral
  vitamins D and E: decreased or tended to decrease
Serum lipid levels [6]; both groups
  TG level: tended to increase
Serum lipid levels [6]; Week 10 (4 mg/day)
  LDL-C level decrease: −7.24%
Serum lipid levels [6]; Week 12 (4 mg/day)
  LDL-C level decrease: −7.12%
Serum lipid levels [6]; fixed-dose group (2 mg BID), Week 2
  LDL-C level maximum decrease: −6.38%
Serum lipid levels [6]; fixed-dose group, after Week 2 through Week 12
  LDL-C level change: −1.96 to −5.98%
[7]; 5 mg group
  number of adverse events: 12
  subjects with adverse events (incidence): 83%
[7]; 15 mg BID group
  vitamins A and E: Decreased
[7]; 15 mg group
  number of adverse events: 32
  subjects with adverse events (incidence): 100%
[7]; 15 mg group, of 6 subjects
  subjects with diarrhea: 6 subjects
[7]; 5 or 15 mg BID after meals, 14 days, capsules
  death or serious adverse events: neither death nor serious adverse events were reported
[7]; active group
  incidence of ALT increased: 17%
  incidence of abdominal discomfort: 25%
  incidence of anorexia: 42%
  incidence of diarrhea: 67%
  incidence of gastrointestinal disorders (SOC): 75%
  incidence of investigations (SOC): 33%
  incidence of metabolism and nutrition disorders (SOC): 42%
  incidence of moderate abdominal discomfort: 8%
  incidence of moderate diarrhea: 58%
  incidence of moderate feeling queasy: 8%
  incidence of moderate stomach discomfort: 8%
  incidence of stomach discomfort: 58%
[7]; active group (5 and 15 mg BID), 12 subjects
  subjects with adverse events (incidence): 92%
[7]; active group, 12 subjects
  number of adverse events: 44
[7]; long-term treatment in outpatients
  tolerable dosage: 5 mg BID
[7]; repeated BID administration
  doses at which diarrhea occurred: ≥ 5 mg
[8]; 5 mg BID
  incidence of diarrhea: 100%
  incidence of moderate diarrhea: 66.7%
  incidence of vomiting (moderate): 16.7%
  number of diarrhea events: 7
  subjects with adverse events (incidence): 100.0%
  suitability as clinical dose for hyperlipidemic patients: inappropriate as a clinical dose
[8]; 10 mg QD
  subjects with adverse events (incidence): 50.0%
[8]; 20 mg QD
  incidence of diarrhea: 16.7%
  incidence of moderate diarrhea: 16.7%
  number of diarrhea events: One
  subjects with adverse events (incidence): 66.7%
[8]; 30 mg QD
  incidence of diarrhea: 66.7%
  incidence of moderate diarrhea: 50.0%
  number of diarrhea events: 4
  subjects with adverse events (incidence): 66.7%
  vitamin E levels: decreased on Day 7
[8]; 30 mg dose
  subjects with queasiness: 2 of 6 subjects
[8]; active group
  incidence of infection and infestation (SOC): 4.2%
  incidence of investigation (SOC): 20.8%
  incidence of metabolism and nutrition disorder (SOC): 4.2%
[8]; active group, 24 subjects
  incidence of gastrointestinal disorder (SOC): 58.3%
[8]; overall compound group
  incidence of CK increased: 12.5%
  incidence of abdomen enlarged feeling: 20.8%
  incidence of diarrhea: 45.8%
  incidence of loose stools: 20.8%
  incidence of stomach discomfort: 25.0%
  number of diarrhea events: Twelve
[8]; overall compound group, 24 subjects
  subjects with adverse events (incidence): 70.8%
[8]; remaining groups (10 mg QD, 20 mg QD, 5 mg BID)
  fat-soluble vitamin levels: did not decrease
[8]; tablets, 14 days
  death or serious adverse events: No death or other serious adverse events occurred
Serum lipid levels [9]; active group
  LDL-C, HDL-C, TC, and ApoB values: decreased
  postprandial elevations for RLP-C, TG, LDL-TG, HDL-TG, CM-TG, and ApoB48: inhibited
Serum lipid levels [9]; after the first dose on Day 1
  increase in postprandial values for RLP-C, TG, LDL-TG, HDL-TG, and CM-TG: inhibited an increase
